Experimental data as given in US9485989B2, “Method of controlling neonicotinoid resistant hemiptera” (Syngenta Participations AG, priority 2010, dated 2016).

tested on: IND3 strain of Nilaparvata lugens (Neonicotinoid resistant); assay: Example B2b: Nilaparvata lugens larvicide, feeding/contact activity, preventive (rice seedlings), resistant strain; assay type: in vivo; conditions: Lowest concentration giving greater than 80% mortality of resistant (IND3) hoppers / same for susceptible hoppers; Nilaparvata lugens N3 nymphs on rice seedlings, 6 and 12 days after treatment
Excerpt: (§1) The level of resistance and therefore the impact on the performance of the insecticide can be measured by the use of a ‘Resistance Factor’. The resistance factor can be calculated by dividing the concentration of an insecticide that provides a set level of mortality (i.e. 80%) for the ‘resistant’ strain with the concentration of the same insecticide that provides the same level of mortality for the ‘susceptible’ insect of the same species and life-stage. Although there are no set rules, a low value (1-10) indicates no cross-resistance and only natural levels of variation and a high value (50+) provides strong evidence of cross-resistance.
b) Neonicotinoid Resistant Strain of the Brown Planthopper (Nilaparvata lugens)
Nilaparvata lugens strains utilised: • Standard screening strain of Nilaparvata lugens (Neonicotinoid susceptible) • IND3 strain of Nilaparvata lugens (Neonicotinoid resistant) Bioassay Method:
Nilaparvata lugens: larvicide, feeding/contact activity, preventive
Rice seedlings are treated with the diluted test solutions in a turn table spray chamber. After drying, they are infested with 20 N3 nymphs. 6 and 12 days after the treatment samples are checked for mortality, growth regulation, and effects on the F1 generation.

SMILES	Resistance Factor (RF80)
CN1COCN(Cc2cnc(Cl)s2)/C1=N\[N+](=O)[O-] [thiamethoxam, reference compound]	>64
CCOC(=O)OC1=C(c2c(C)cc(C)cc2C)C(=O)N(OCC)C12CCN(OC)CC2 [drawing 473]	<1
CON1CCC2(CC1)C(=O)C(c1c(C)cc(C)cc1C)C(=O)N2C (stereo not shown)	1
CCOC(=O)OC1=C(c2c(C)cc(Cl)cc2C)C(=O)N(C)C12CCN(OC)CC2	4
CCOC(=O)OC1=C(c2c(C)cc(C)cc2C)C(=O)N(OC2CCCO2)C12CCN(OC)CC2 (stereo not shown)	1

same assay, conditions: neonicotinoid resistant IND3 versus susceptible Nilaparvata lugens

SMILES	Resistance factor (RF)
CN1COCN(Cc2cnc(Cl)s2)/C1=N\[N+](=O)[O-] [thiamethoxam, reference compound]	high

tested on: ALM07 strain (Neonicotinoid and pyrethroid resistant) of the Tobacco Whitefly (Bemisia tabaci); assay: Example B2c: Bemisia tabaci residual activity, preventive egg lay (cotton seedlings), resistant strain; assay type: in vivo; conditions: Concentration giving 50% control of resistant (ALM07) whitefly egg lay / same for susceptible whitefly; Bemisia tabaci on cotton seedlings, 3 days after exposure
Excerpt: as §1
c) Neonicotinoid and Pyrethroid Resistant Strain of the Tobacco Whitefly (Bemisia tabaci)
Bemisia tabaci strains utilised: • Standard screening strain of Bemisia tabaci (Neonicotinoid susceptible) • ALM07 strain of […] (Neonicotinoid and pyrethroid resistant) and originally provided by Rothamsted Research, UK. (>250 RF in residual mortality bioassay of adult whitefly with thiamethoxam). Bioassay Method: […]
Cotton seedlings, with all but a single leaf removed are treated with the diluted test solutions in a turn table spray chamber. […] 3 days after exposure, the total number of adult whitefly and the total number of whitefly eggs laid on the leaf are counted. Percentage control of egg lay is calculated and corrected for control mortality.

SMILES	Resistance Factor (RF50)
CCOC(=O)OC1=C(c2c(C)cc(C)cc2C)C(=O)N(C)C12CCN(OC)CC2 [drawing 476]	4

tested on: not given; assay: not given; conditions: not given

melting point	SMILES
122 to 125 °C	CCOC(=O)OC1=C(c2c(C)cc(Cl)cc2C)C(=O)N(OC)C12CCN(OC)CC2 [P1ii.114]
169 to 172 °C	CON1CCC2(CC1)C(O)=C(c1c(C)cc(C)cc1C)C(=O)N2OCC1CCCCC1 [P2ii.96]
137 to 139 °C	CON1CCC2(CC1)C(O)=C(c1c(C)cc(Cl)cc1C)C(=O)N2OC1CCCO1 (stereo not shown) [P2ii.105]
63 to 64 °C	COCCON1C(=O)C(c2cc(Br)c(C)cc2C)=C(O)C12CCN(OC)CC2 [P2ii.73]
218 to 221 °C	CCN1C(=O)C(c2c(C)cc(C)cc2C)=C(O)C12CCN(OC)CC2 [P2.11]
116 to 119 °C	CCOC(=O)OC1=C(c2c(F)ccc(C)c2Cl)C(=O)N(OCOC)C12CCN(OC)CC2 [P1ii.61]
149 to 150 °C	CCOC(=O)OC1=C(c2cc(C)c(C)cc2Cl)C(=O)N(C)C12CCN(OC)CC2 [P1.22]
96 to 110 °C	CCOC(=O)OC1=C(c2cc(C)ccc2C)C(=O)N(C)C12CCN(OC)CC2 [P1.1]
191 to 193 °C	CON1CCC2(CC1)C(O)=C(c1cc(C)c(C)cc1Br)C(=O)N2C [P2.23]
223 to 225 °C	CON1CCC2(CC1)C(O)=C(c1c(C)cc(C)cc1C)C(=O)N2CC1CC1 [P2.8, 1-Cyclopropylmethyl-4-hydroxy-8-methoxy-3-(2,4,6-trimethyl-phenyl)-1,8-diaza-spiro[4.5]dec-3-en-2-one]
135 to 137 °C	CON1CCC2(CC1)C(O)=C(c1c(C)cc(C)cc1C)C(=O)N2OCCOC1CCCCO1 (stereo not shown) [P2ii.22]
176 to 178 °C	COCON1C(=O)C(c2c(C)cc(Cl)cc2C)=C(O)C12CCN(OC)CC2 [P2ii.104]
91 to 93 °C	COCON1C(=O)C(c2cc(C)ccc2C)=C(OC)C12CCN(OC)CC2 [P1ii.31]
64 to 67 °C	COCON1C(=O)C(c2cc(Br)c(F)cc2C)=C(O)C12CCN(OC)CC2 [P2ii.89]
191 to 192 °C	CON1CCC2(CC1)C(O)=C(c1cc(C)c(C)cc1Cl)C(=O)N2C [P2.26, 3-(2-Chloro-4,5-dimethyl-phenyl)-4-hydroxy-8-methoxy-1-methyl-1,8-diaza-spiro[4.5]dec-3-en-2-one]
121 to 123 °C	CON1CCC2(CC1)C(O)=C(c1cc(C)ccc1C)C(=O)N2C [P2.1]
101 to 103 °C	CCOC(=O)OC1=C(c2c(C)cc(C)cc2C)C(=O)N(CC)C12CCN(OC)CC2 [P1.8]
86 to 87 °C	CON1CCC2(CC1)C(O)=C(c1cc(Br)c(C)cc1C)C(=O)N2OC [P2ii.75]
158 to 159 °C	CCOC(=O)OC1=C(c2cc(C)c(C)cc2Br)C(=O)N(C)C12CCN(OC)CC2 [P1.20]
93 to 95 °C	COCON1C(=O)C(c2cc(C)ccc2C)=C(OC(=O)CC(C)(C)C)C12CCN(OC)CC2 [P1ii.5]
71 to 74 °C	COCCON1C(=O)C(c2cc(Br)c(F)cc2C)=C(O)C12CCN(OC)CC2 [P2ii.87]
161 to 164 °C	COCCON1C(=O)C(c2c(C)cc(Cl)cc2C)=C(O)C12CCN(OC)CC2 [P2ii.101]
135 to 137 °C	CCOC(=O)OC1=C(c2c(Cl)ccc(C)c2F)C(=O)N(OC2CCCC2)C12CCN(OC)CC2 [P1ii.43]
155 to 158 °C	COCON1C(=O)C(c2c(F)ccc(C)c2Cl)=C(O)C12CCN(OC)CC2 [P2ii.60]
128 °C (dec.)	COCON1C(=O)C(c2c(C)cc(-c3ccc(Cl)cc3)cc2C)=C(O)C12CCN(OC)CC2 [P2ii.15, 3-(4′-Chloro-3,5-dimethyl-biphenyl-4-yl)-4-hydroxy-8-methoxy-1-methoxymethoxy-1,8-diaza-spiro[4.5]dec-3-en-2-one]
88 to 92 °C	CON1CCC2(CC1)C(O)=C(c1c(C)cc(Cl)cc1C)C(=O)N2OC [P2ii.102]
183 to 186 °C	CON1CCC2(CC1)C(O)=C(c1cc(C)c(C)cc1C)C(=O)N2C [P2.25]
182 to 183 °C	CON1CCC2(CC1)C(O)=C(c1cc(Br)c(C)cc1C)C(=O)N2C [P2.28]

tested on: Myzus Persicae (Green Peach Aphid); assay: Example B1: Myzus persicae mixed population, feeding/residual contact activity, preventive (sunflower leaf discs); assay type: in vivo; conditions: foliar, 144 h, A: neonicotinoid insecticides susceptible Myzus persicae (mixed age population), 6 DAT, read-out: Mortality (A)
Procedure: Myzus Persicae (Green Peach Aphid): Mixed Population, Feeding/Residual Contact Activity, Preventive
Sunflower leaf discs are placed on agar in a 24-well microtiter plate and sprayed with test solutions. After drying, the leaf discs are infested with an aphid population of mixed ages. After an incubation period of 6 DAT, samples are checked for mortality.

SMILES	mortality at 200 ppm
CCOC(=O)OC1=C(c2c(C)cc(C)cc2C)C(=O)N(C)C12CCN(OC)CC2 [P1.2, Carbonic acid ethyl ester 8-methoxy-1-methyl-2-oxo-3-(2,4,6-trimethyl-phenyl)-1,8-diaza-spiro[4.5]dec-3-en-4-yl ester]	95%

same assay, conditions: foliar, 144 h, B: neonicotinoid insecticides resistant Myzus persicae (mixed age population), 6 DAT, read-out: Mortality (B)

SMILES	mortality at 200 ppm
CCOC(=O)OC1=C(c2c(C)cc(C)cc2C)C(=O)N(C)C12CCN(OC)CC2 [P1.2, Carbonic acid ethyl ester 8-methoxy-1-methyl-2-oxo-3-(2,4,6-trimethyl-phenyl)-1,8-diaza-spiro[4.5]dec-3-en-4-yl ester]	90%

tested on: FRC-P strain of Myzus persicae (Neonicotinoid resistant); assay: Example B2a: Myzus persicae mixed population, contact activity, curative on pea seedlings, resistant strain; assay type: in vivo; conditions: Lowest concentration giving greater than 80% mortality of resistant (FRC-P) aphids / same for susceptible aphids; Myzus persicae on pea seedlings, spray, 6 days after treatment
Excerpt: as §1
a) Neonicotinoid and Pyrethroid Resistant Strain of the Green Peach Aphid (Myzus persicae)
Myzus persicae strains utilised: • Standard screening strain of Myzus persicae (Neonicotinoid susceptible) • FRC-P strain of Myzus persicae (Neonicotinoid resistant) Bioassay Method:
Myzus persicae: mixed population, contact activity, curative on pea seedlings
Pea seedlings, infested with an aphid population of mixed ages, are treated with the test solutions in a spray chamber. 6 days after treatment, samples are checked for mortality.

SMILES	Resistance Factor (RF80)
CCOC(=O)OC1=C(c2c(C)cc(Cl)cc2C)C(=O)NC12CCN(OC)CC2	<1
CCOC(=O)OC1=C(c2c(C)cc(C)cc2C)C(=O)N(OCC)C12CCN(OC)CC2 [drawing 468]	4
CN1COCN(Cc2cnc(Cl)s2)/C1=N\[N+](=O)[O-] [thiamethoxam, reference compound]	>250
CON1CCC2(CC1)C(=O)C(c1c(C)cc(C)cc1C)C(=O)N2OC1CCCO1 (stereo not shown)	<1
CCOC(=O)OC1=C(c2c(C)cc(C)cc2C)C(=O)NC12CCN(OC)CC2	4
CCOC(=O)OC1=C(c2c(C)cc(C)cc2C)C(=O)N(C)C12CCN(OC)CC2 [drawing 471]	1
CON1CCC2(CC1)NC(=O)C(c1c(C)cc(Cl)cc1C)C2=O (stereo not shown)	1
CON1CCC2(CC1)NC(=O)C(c1c(C)cc(C)cc1C)C2=O (stereo not shown)	4

same assay, conditions: neonicotinoid resistant FRC-P versus susceptible Myzus persicae; mortality 6 days after treatment

SMILES	Resistance factor (RF)
CN1COCN(Cc2cnc(Cl)s2)/C1=N\[N+](=O)[O-] [thiamethoxam, reference compound]	high
